Results from US20210260010A1, “COMPOSITIONS AND METHODS FOR THE REDUCTION OR TREATMENT OF INFLAMMATION” (AXCELLA HEALTH INC., priority 2018, published 2021).

What was measured:
CCL18 = test: IL-4 induced CCL18 secretion in primary human monocyte-derived macrophages (ELISA); type: cell-based; details: for Donor 1 CCL18 Measurements Mean / Donor 2 CCL18 Measurements Mean: relative to vehicle control; for CCL18 Measurements: Mean (fold change relative to vehicle control): IL-4 induced; for IL-4 induced CCL18 secretion (fold change relative to vehicle control): macrophages
Method: Lymphocytes were purified from unpurified buffy coats (Research Blood Components) using Lymphocyte Separation Medium (Corning). After centrifugation, the PBMC layer was extracted and rinsed several times using Dulbecco's phosphate-buffered saline (DPBS; Gibco). After straining PBMCs through a 70 uM cell strainer, cells were resuspended and counted using a Cellometer K2 automated cell counter.
CD14+ cells were selected using EasySep™ Human CD14 Positive Selection Kit II ([…] Technologies) according to manufacturer-supplied protocols. Following isolation CD14+ cells were seeded into 10 cm tissue culture plates and differentiated into macrophages using M-CSF (Peprotech).
On day 0, primary human PBMC derived macrophages were seeded in Dulbecco's Modified Eagle Medium (DMEM) (Gibco) supplemented with penicillin-streptomycin (Hyclone) and 10% heat inactivated fetal bovine serum (HI-FBS) (Atlanta Bio) into 96-well microplates (ThermoFisher) and incubated overnight at 37° C., 5% CO2. On day 1, cells were washed once with DPBS and then treated with: • a. Amino acid free DMEM (US Biologicals) containing a defined custom amino acid concentration based on the mean physiological concentrations in blood based on values published in the Human Metabolome Database (HMDB), with 6 mM glucose, 1 mM sodium pyruvate, 10 mM HEPES, penicillin-streptomycin; or • b. The same medium described above with one amino acid or amino acid combination at various concentrations
On day 2, cells were treated with the same mediums described above supplemented with recombinant human interleukin-4 (IL-4; Peprotech). Control wells were treated with tofacitinib (Tocris) and IL-4, PBS with IL-4, or phosphate buffered saline (PBS) alone.
On day 3, the supernatant was collected and immediately frozen in −80° C. freezer. Cells were washed once with DPBS and viability was assessed using the WST-8 Cell Proliferation Cytotoxicity Assay (Dojindo) according to manufacturer-supplied protocol. Following the assay, cells were washed twice with PBS and fixed with 4% paraformaldehyde. Protein levels in supernatant samples were analyzed by ELISA for CCL18 using commercially available kits (R&D Systems) according to manufacturer-supplied protocols.

MCP1/CCL2 = MCP1/CCL2 secretion by primary human hepatocytes exposed to free fatty acids and TNF-α (ELISA); type: cell-based; details: for MCP1 expression relative to Control- Donor 1, Mean: donor 1 hepatocytes; for MCP1 expression relative to Control- Donor 1, Mean / MCP1 expression relative to Control- Donor 2, Mean: FFA + TNF-α, baseline subtracted; for MCP1 expression relative to Control- Donor 2, Mean: donor 2 hepatocytes; for MCP1/CCL2 secretion (baseline subtracted): primary human hepatocytes from two healthy donors, FFA 250 uM + TNF-α 1 ng/ml
Method: Hepatocyte lipotoxicity appears to be a central driver of hepatic cellular injury via oxidative stress and endoplasmic reticulum (ER) stress. The ability of amino acids to influence steatosis (lipid accumulation) and inflammation in hepatocytes was assessed using human primary hepatocytes (Lonza, TRL).
Primary hepatocytes lot nos. from two healthy human donors were seeded on day 0 at density of 6e04 cells in 96 well optical microplates (Thermofisher) in hepatocyte plating media (William's E medium (Gibco) supplemented with 10% heat-inactivated FBS (Atlanta Bio), 2 mM Glutamax (Gibco) and 0.2% Primocin (InVivoGen) and incubated for 6 hours at 37° C., 5% CO2. After 6 hours, cells were washed twice and incubated overnight at 37° C., 5% CO2 with Hepatocytes defined medium (Corning) supplemented with 2 mM Glutamax (Gibco) and 1× Penicillin/Streptomycin. On day 1, cells were washed twice and incubated for 24 h in the hepatocyte culture media in the same conditions described above.
On day 2, cells were washed twice with DPBS 1× (Gibco) and maintained in amino acid-free WEM (US Biologicals) containing a defined custom amino acid concentration based on the mean physiological concentrations in blood. The values are published in the Human Metabolome Database (Wishart D S, Tzur D, Knox C, et al., HMDB: the Human Metabolome Database. Nucleic Acids Res. January 2007; 35(Database issue):D521-6. 17202168; which is hereby incorporated by reference in its entirety). This custom media is supplemented with 11 mM Glucose, 0.272 mM Sodium Pyruvate, and a dose curve of defined amino acid compositions (i.e., vehicle, LIVRQ+N-acetylcysteine, LIVRQ, RQ+N-acetylcysteine, N-acetylcysteine alone, LIV, or individually with L-Leucine, L-Isoleucine, L-Valine, L-Arginine, L-Glutamine, and L-Cysteine) at various ranges of concentrations. Cells were maintained in this defined media for 24 hours at 37° C., 5% CO2.
After pre-treatment, cells were exposed to free fatty acids (FFA) at 250 uM with a ratio of 2:1 (Oleate:Palmitate) supplemented with TNF-α (Thermofisher) at 1 ng/ml or vehicle. Cells were incubated with the FFAs mixture and the different amino acids combinations for 24 hours at 37° C., 5% CO2. After 24 hours incubation, media was removed for cytokine analysis and replaced by fresh media containing the same stimulus conditions and amino acid concentrations. Cells were incubated for an additional 48 hours for a total of 72 hours of FFA and TNFα stimulation.
Human CCL2 (MCP-1) was measured by ELISA (Human […] DuoSet ELISA, R&D Systems) at ⅕ or 1/10 dilution in 1× Reagent Diluent (Reagent Ancillary Kit 2, R&D Systems). Data were normalized to the specific per well cell density determined by nuclei count stained by Hoechst 3342 (Life technologies) in the fluorescence microscopy described below.

[1] = Conc. 109 μM (baseline comparator)
[2] = Conc. 749 μM (baseline comparator)
[3] = Conc. 66 μM (baseline comparator)

Structure (SMILES): N=C(N)NCCC[C@H](N)C(=O)O [Arginine, L-Arginine]
- Donor 1 CCL18 Measurements Mean (CCL18; Donor 1, Conc. 109 μM): 1.131 fold change
- Donor 1 CCL18 Measurements Mean (CCL18; Donor 1, Conc. 1088 μM): 1.068 fold change
- Donor 1 CCL18 Measurements Mean (CCL18; Donor 1, Conc. 2720 μM): 1.121 fold change
- Donor 1 CCL18 Measurements Mean (CCL18; Donor 1, Conc. 5440 μM): 1.277 fold change
- Donor 2 CCL18 Measurements Mean (CCL18; Donor 2, Conc. 109 μM): 0.9634 fold change
- Donor 2 CCL18 Measurements Mean (CCL18; Donor 2, Conc. 1088 μM): 0.9846 fold change
- Donor 2 CCL18 Measurements Mean (CCL18; Donor 2, Conc. 2720 μM): 1.031 fold change
- Donor 2 CCL18 Measurements Mean (CCL18; Donor 2, Conc. 5440 μM): 1.089 fold change
- CCL18 Measurements: Mean (fold change relative to vehicle control) (CCL18; Donor 3, Conc. 109 μM): 1.138 fold change
- CCL18 Measurements: Mean (fold change relative to vehicle control) (CCL18; Donor 3, Conc. 1088 μM): 0.9131 fold change
- CCL18 Measurements: Mean (fold change relative to vehicle control) (CCL18; Donor 3, Conc. 2720 μM): 1.208 fold change
- CCL18 Measurements: Mean (fold change relative to vehicle control) (CCL18; Donor 3, Conc. 5440 μM): 1.206 fold change
- MCP1 expression relative to Control- Donor 1, Mean (MCP1/CCL2; [1]): 2.37E−15
- MCP1 expression relative to Control- Donor 2, Mean (MCP1/CCL2; [1]): −4.7E−15
- MCP1 expression relative to Control- Donor 1, Mean (MCP1/CCL2; Conc. 1088 μM): 5.114
- MCP1 expression relative to Control- Donor 2, Mean (MCP1/CCL2; Conc. 1088 μM): 24.95
- MCP1 expression relative to Control- Donor 1, Mean (MCP1/CCL2; Conc. 2720 μM): 6.527
- MCP1 expression relative to Control- Donor 2, Mean (MCP1/CCL2; Conc. 2720 μM): 24.06
- MCP1 expression relative to Control- Donor 1, Mean (MCP1/CCL2; Conc. 5440 μM): 10.9386
- MCP1 expression relative to Control- Donor 2, Mean (MCP1/CCL2; Conc. 5440 μM): 8.494
- MCP1/CCL2 secretion (baseline subtracted) (MCP1/CCL2): increased

Structure (SMILES): NC(=O)CC[C@H](N)C(=O)O [Glutamine, L-Glutamine]
- Donor 1 CCL18 Measurements Mean (CCL18; Donor 1, Conc. 749 μM): 1.382 fold change
- Donor 1 CCL18 Measurements Mean (CCL18; Donor 1, Conc. 3747 μM): 1.492 fold change
- Donor 1 CCL18 Measurements Mean (CCL18; Donor 1, Conc. 11242 μM): 1.645 fold change
- Donor 1 CCL18 Measurements Mean (CCL18; Donor 1, Conc. 22484 μM): 1.992 fold change
- Donor 2 CCL18 Measurements Mean (CCL18; Donor 2, Conc. 749 μM): 1.4 fold change
- Donor 2 CCL18 Measurements Mean (CCL18; Donor 2, Conc. 3747 μM): 1.559 fold change
- Donor 2 CCL18 Measurements Mean (CCL18; Donor 2, Conc. 11242 μM): 1.857 fold change
- Donor 2 CCL18 Measurements Mean (CCL18; Donor 2, Conc. 22484 μM): 2.219 fold change
- CCL18 Measurements: Mean (fold change relative to vehicle control) (CCL18; Donor 3, Conc. 749 μM): 1.56 fold change
- CCL18 Measurements: Mean (fold change relative to vehicle control) (CCL18; Donor 3, Conc. 3747 μM): 1.606 fold change
- CCL18 Measurements: Mean (fold change relative to vehicle control) (CCL18; Donor 3, Conc. 11242 μM): 2.428 fold change
- CCL18 Measurements: Mean (fold change relative to vehicle control) (CCL18; Donor 3, Conc. 22484 μM): 2.33 fold change
- IL-4 induced CCL18 secretion (fold change relative to vehicle control) (CCL18; Donor 1): significantly increased
- IL-4 induced CCL18 secretion (fold change relative to vehicle control) (CCL18; Donor 2): significantly increased
- IL-4 induced CCL18 secretion (fold change relative to vehicle control) (CCL18; Donor 3): significantly increased
- MCP1 expression relative to Control- Donor 1, Mean (MCP1/CCL2; [2]): 0
- MCP1 expression relative to Control- Donor 2, Mean (MCP1/CCL2; [2]): 2.84E−14
- MCP1 expression relative to Control- Donor 1, Mean (MCP1/CCL2; Conc. 3747 μM): −0.8981
- MCP1 expression relative to Control- Donor 2, Mean (MCP1/CCL2; Conc. 3747 μM): −45.0574
- MCP1 expression relative to Control- Donor 1, Mean (MCP1/CCL2; Conc. 11242 μM): −9.001
- MCP1 expression relative to Control- Donor 2, Mean (MCP1/CCL2; Conc. 11242 μM): −90.6558
- MCP1 expression relative to Control- Donor 1, Mean (MCP1/CCL2; Conc. 22484 μM): −21.8392
- MCP1 expression relative to Control- Donor 2, Mean (MCP1/CCL2; Conc. 22484 μM): −138.873
- MCP1/CCL2 secretion (baseline subtracted) (MCP1/CCL2): significantly decrease

Structure (SMILES): CC[C@H](C)[C@H](N)C(=O)O [Isoleucine, L-Isoleucine]
- Donor 1 CCL18 Measurements Mean (CCL18; Donor 1, Conc. 66 μM): 1.07 fold change
- Donor 1 CCL18 Measurements Mean (CCL18; Donor 1, Conc. 1328 μM): 1.12 fold change
- Donor 1 CCL18 Measurements Mean (CCL18; Donor 1, Conc. 3320 μM): 1.181 fold change
- Donor 1 CCL18 Measurements Mean (CCL18; Donor 1, Conc. 6639 μM): 0.9823 fold change
- Donor 2 CCL18 Measurements Mean (CCL18; Donor 2, Conc. 66 μM): 1.204 fold change
- Donor 2 CCL18 Measurements Mean (CCL18; Donor 2, Conc. 1328 μM): 1.461 fold change
- Donor 2 CCL18 Measurements Mean (CCL18; Donor 2, Conc. 3320 μM): 1.503 fold change
- Donor 2 CCL18 Measurements Mean (CCL18; Donor 2, Conc. 6639 μM): 1.685 fold change
- CCL18 Measurements: Mean (fold change relative to vehicle control) (CCL18; Donor 3, Conc. 66 μM): 1.056 fold change
- CCL18 Measurements: Mean (fold change relative to vehicle control) (CCL18; Donor 3, Conc. 1328 μM): 1.026 fold change
- CCL18 Measurements: Mean (fold change relative to vehicle control) (CCL18; Donor 3, Conc. 3320 μM): 1.431 fold change
- CCL18 Measurements: Mean (fold change relative to vehicle control) (CCL18; Donor 3, Conc. 6639 μM): 1.111 fold change
- IL-4 induced CCL18 secretion (fold change relative to vehicle control) (CCL18; Donor 2): significantly increased
- MCP1 expression relative to Control- Donor 1, Mean (MCP1/CCL2; [3]): −1.2E−15
- MCP1 expression relative to Control- Donor 2, Mean (MCP1/CCL2; [3]): 0
- MCP1 expression relative to Control- Donor 1, Mean (MCP1/CCL2; Conc. 1328 μM): −0.3073
- MCP1 expression relative to Control- Donor 2, Mean (MCP1/CCL2; Conc. 1328 μM): 26.62
- MCP1 expression relative to Control- Donor 1, Mean (MCP1/CCL2; Conc. 3320 μM): −2.417
- MCP1 expression relative to Control- Donor 2, Mean (MCP1/CCL2; Conc. 3320 μM): −5.645
- MCP1 expression relative to Control- Donor 1, Mean (MCP1/CCL2; Conc. 6639 μM): −0.205
- MCP1 expression relative to Control- Donor 2, Mean (MCP1/CCL2; Conc. 6639 μM): 18.62
- MCP1/CCL2 secretion (baseline subtracted) (MCP1/CCL2): did not have an effect
